Reference: patent publication US20230364070A1, “PYRROLO[3,2-C]PYRIDIN-4-ONE DERIVATIVES USEFUL IN THE TREATMENT OF CANCER” (Scorpion Therapeutics, Inc., priority 2020, published 2023)

How the values were obtained:
Assay type in all cases: cell-based
Ba/F3 cells with EGFR WT = target: T1, Ba/F3 cells with EGFR WT (Homo sapiens, UniProt P00533); assay: EGFR activity: Ba/F3 cell viability (CellTiter-Glo, 72 h), EGFR WT; conditions: read-out: BaF3 WT IC50
T1 construct: expressed in transfected cells; host or cells: Ba/F3 (murine pro-B cells), retroviral transduction, puromycin selection, maintained with EGF

[1] = target: T2, Ba/F3 cells with EGFR exon 20 NPG Ins D770_N771 (Homo sapiens, UniProt P00533, INS770NPG); assay: EGFR activity: Ba/F3 cell viability (CellTiter-Glo, 72 h), EGFR exon 20 NPG insertion; conditions: EGFR exon 20 NPG Ins D770_N771, cell viability, read-out: BaF3 NPG IC50
T2 construct: expressed in transfected cells; host or cells: Ba/F3 (murine pro-B cells), retroviral transduction, puromycin selection, IL3-independent pool
T2 sequence (P00533 with tags, fused parts or gaps INS770NPG): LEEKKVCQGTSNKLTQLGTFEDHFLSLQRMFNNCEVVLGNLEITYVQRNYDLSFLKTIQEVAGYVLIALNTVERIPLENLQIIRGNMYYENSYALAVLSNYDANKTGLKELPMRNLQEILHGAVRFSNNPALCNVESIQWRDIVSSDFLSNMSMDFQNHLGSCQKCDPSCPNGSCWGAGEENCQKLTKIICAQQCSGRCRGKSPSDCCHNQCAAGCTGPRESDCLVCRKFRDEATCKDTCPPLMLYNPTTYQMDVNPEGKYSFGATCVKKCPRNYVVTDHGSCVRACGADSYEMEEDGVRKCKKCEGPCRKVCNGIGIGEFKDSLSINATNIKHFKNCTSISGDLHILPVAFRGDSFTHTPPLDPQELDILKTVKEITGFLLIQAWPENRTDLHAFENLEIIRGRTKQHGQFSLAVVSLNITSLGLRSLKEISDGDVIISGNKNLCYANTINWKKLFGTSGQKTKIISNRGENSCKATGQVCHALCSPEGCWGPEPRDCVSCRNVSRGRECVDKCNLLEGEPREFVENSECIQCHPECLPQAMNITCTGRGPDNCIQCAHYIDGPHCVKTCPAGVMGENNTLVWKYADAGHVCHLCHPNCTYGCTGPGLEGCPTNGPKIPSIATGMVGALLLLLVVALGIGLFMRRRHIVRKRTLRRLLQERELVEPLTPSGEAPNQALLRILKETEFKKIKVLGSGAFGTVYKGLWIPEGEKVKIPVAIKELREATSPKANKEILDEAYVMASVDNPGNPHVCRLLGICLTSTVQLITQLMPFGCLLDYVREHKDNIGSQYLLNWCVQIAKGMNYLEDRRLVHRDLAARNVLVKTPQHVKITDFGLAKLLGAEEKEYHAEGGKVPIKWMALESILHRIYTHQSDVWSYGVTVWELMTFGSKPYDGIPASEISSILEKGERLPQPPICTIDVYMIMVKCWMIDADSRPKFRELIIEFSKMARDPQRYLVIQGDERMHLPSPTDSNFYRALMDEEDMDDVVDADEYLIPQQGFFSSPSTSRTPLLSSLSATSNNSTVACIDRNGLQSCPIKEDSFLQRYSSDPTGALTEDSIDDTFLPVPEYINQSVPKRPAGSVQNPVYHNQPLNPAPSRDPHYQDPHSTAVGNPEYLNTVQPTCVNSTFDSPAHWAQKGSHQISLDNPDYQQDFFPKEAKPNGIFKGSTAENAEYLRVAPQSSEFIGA

[2] = target: T3, pEGFR in Ba/F3 cells expressing EGFR exon 20 NPG Ins D770_N771 (Homo sapiens, UniProt P00533, INS770NPG); assay: Inhibitor activity on EGFR phosphorylation (pEGFR AlphaLISA, 2 h), Ba/F3 EGFR exon 20 NPG insertion; conditions: Ba/F3 EGFR exon 20 NPG Ins D770_N771
T3 construct: expressed in transfected cells; host or cells: Ba/F3 (murine pro-B cells), retroviral transduction, puromycin selection, IL3-independent pool
T3 sequence (P00533 with tags, fused parts or gaps INS770NPG): as above

[3] = target: T4, Ba/F3 cells with EGFR exon 20 ASV Ins V769_D770 (Homo sapiens, UniProt P00533, INS769ASV); assay: EGFR activity: Ba/F3 cell viability (CellTiter-Glo, 72 h), EGFR exon 20 ASV insertion; conditions: EGFR exon 20 ASV Ins V769_D770, cell viability, read-out: BaF3 ASV IC50
T4 construct: expressed in transfected cells; host or cells: Ba/F3 (murine pro-B cells), retroviral transduction, puromycin selection, IL3-independent pool
T4 sequence (P00533 with tags, fused parts or gaps INS769ASV): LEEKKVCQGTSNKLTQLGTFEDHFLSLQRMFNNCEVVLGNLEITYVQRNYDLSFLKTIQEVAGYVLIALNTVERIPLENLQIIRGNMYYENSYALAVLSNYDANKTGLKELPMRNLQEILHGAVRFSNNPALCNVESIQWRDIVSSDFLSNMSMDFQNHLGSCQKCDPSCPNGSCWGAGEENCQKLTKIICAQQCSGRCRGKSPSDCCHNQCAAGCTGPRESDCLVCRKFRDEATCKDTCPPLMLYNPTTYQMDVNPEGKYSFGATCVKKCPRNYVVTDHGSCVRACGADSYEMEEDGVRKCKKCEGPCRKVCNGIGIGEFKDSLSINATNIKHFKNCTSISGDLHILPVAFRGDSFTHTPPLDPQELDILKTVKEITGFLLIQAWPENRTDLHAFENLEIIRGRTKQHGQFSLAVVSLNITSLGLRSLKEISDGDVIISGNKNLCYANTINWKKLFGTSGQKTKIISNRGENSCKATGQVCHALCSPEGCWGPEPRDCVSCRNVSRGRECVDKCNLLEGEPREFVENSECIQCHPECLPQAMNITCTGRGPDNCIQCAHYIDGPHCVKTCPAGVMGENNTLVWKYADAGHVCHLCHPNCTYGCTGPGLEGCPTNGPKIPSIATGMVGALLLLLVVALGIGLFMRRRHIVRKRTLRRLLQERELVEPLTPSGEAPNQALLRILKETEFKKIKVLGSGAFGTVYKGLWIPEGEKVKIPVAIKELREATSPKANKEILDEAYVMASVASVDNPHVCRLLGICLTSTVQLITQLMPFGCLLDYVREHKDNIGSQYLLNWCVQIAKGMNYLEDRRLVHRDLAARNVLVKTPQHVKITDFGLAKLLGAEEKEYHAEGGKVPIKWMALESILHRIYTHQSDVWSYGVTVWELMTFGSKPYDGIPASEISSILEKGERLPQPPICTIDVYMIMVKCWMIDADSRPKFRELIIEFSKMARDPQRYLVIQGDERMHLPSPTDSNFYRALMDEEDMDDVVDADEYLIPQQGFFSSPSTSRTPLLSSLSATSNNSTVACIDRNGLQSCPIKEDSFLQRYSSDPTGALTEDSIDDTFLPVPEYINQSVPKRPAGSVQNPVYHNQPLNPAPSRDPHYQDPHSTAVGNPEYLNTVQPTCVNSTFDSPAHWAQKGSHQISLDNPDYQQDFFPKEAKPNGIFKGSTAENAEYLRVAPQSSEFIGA

pEGFR in CUTO14 cells = target: T5, pEGFR in CUTO14 cells (Homo sapiens, UniProt P00533, DUP767-769); assay: Inhibitor activity on EGFR phosphorylation (pEGFR AlphaLISA, 2 h), CUTO14 cells
T5 construct: endogenous in cells; host or cells: CUTO14 cells
T5 sequence (P00533 with tags, fused parts or gaps DUP767-769): as the sequence (P00533 with tags, fused parts or gaps INS769ASV) above
Experimental: CUTO14 cells were obtained from Dr. Robert C. Doebele at the University of Colorado.
Shake 350 rpm for 1 hr in the dark • 3.4 Prepare donor mix under low light conditions prior to use. Dispense 5 μL of donor mix to all the wells. Mix well on the shaker, seal and wrap in aluminum foil and incubate 1.5 hrs at room temperature in the dark • 3.5 Transfer 18.5 μL mixture to OptiPlate 384, and read using an Envision.

SMILES	IC50 (Ba/F3 cells with EGFR WT)	IC50 [1]	IC50 [2]	IC50 [3]	IC50 (pEGFR in CUTO14 cells)
COc1c(F)cccc1Nc1c(-c2ccncc2OCC2CCc3nccn32)[nH]c2c1C(=O)NCC2 (stereo not shown) [Compound 128, 2-(3-((6,7-dihydro-5H-pyrrolo[1,2-a]imidazol-5-yl)methoxy)pyridin-4-yl)-3-((3-fluoro-2-methoxyphenyl)amino)-1,5,6,7-tetrahydro-4H-pyrrolo[3,2-c]pyridin-4-one]	> 1000 nM	> 1000 nM	> 1000 nM		
COc1c(F)cccc1Nc1c(-c2ccncc2OCc2nnc3n2CCC3)[nH]c2c1C(=O)NCC2 [Compound 131, 3-[(3-fluoro-2-methoxyphenyl)amino]-2-(3-[5H,6H,7H-pyrrolo[2,1-c][1,2,4]triazol-3-ylmethoxy]pyridin-4-yl)-1H,5H,6H,7H-pyrrolo[3,2-c]pyridin-4-one]	> 1000 nM	> 1000 nM	> 1000 nM		
C=CC(=O)N1CCC[C@@H]1COc1cnccc1-c1[nH]c2c(c1Nc1cccc(Cl)c1OC)C(=O)NCC2 [Compound 138a, 3-[(3-chloro-2-methoxyphenyl)amino]-2-(3-[[(2R)-1-(prop-2-enoyl)pyrrolidin-2-yl]methoxy]pyridin-4-yl)-1H,5H,6H,7H-pyrrolo[3,2-c]pyridin-4-one]	100 to 1000 nM	< 100 nM	< 100 nM	< 100 nM	
C=CC(=O)N1CCC[C@H]1COc1cnccc1-c1[nH]c2c(c1Nc1cccc(Cl)c1OC)C(=O)NCC2 [Compound 138b, (S)-2-(3-((1-acryloylpyrrolidin-2-yl)methoxy)pyridin-4-yl)-3-((3-chloro-2-methoxyphenyl)amino)-1,5,6,7-tetrahydro-4H-pyrrolo[3,2-c]pyridin-4-one]	100 to 1000 nM	< 100 nM	< 100 nM	< 100 nM	
CCC(=O)N1CCC[C@H]1COc1cnccc1-c1[nH]c2c(c1Nc1cccc(Cl)c1OC)C(=O)NCC2 [Compound 139, (S)-3-((3-chloro-2-methoxyphenyl)amino)-2-(3-((1-propionylpyrrolidin-2-yl)methoxy)pyridin-4-yl)-1,5,6,7-tetrahydro-4H-pyrrolo[3,2-c]pyridin-4-one]	> 1000 nM	> 1000 nM	100 to 1000 nM	> 1000 nM	
COc1c(Cl)cccc1Nc1c(-c2ccncc2OC[C@@H]2CCCN2C(C)=O)[nH]c2c1C(=O)NCC2 [Compound 141a, (S)-2-(3-((1-acetylpyrrolidin-2-yl)methoxy)pyridin-4-yl)-3-((3-chloro-2-methoxyphenyl)amino)-1,5,6,7-tetrahydro-4H-pyrrolo[3,2-c]pyridin-4-one]	> 1000 nM	> 1000 nM	100 to 1000 nM		
COc1c(Cl)cccc1Nc1c(-c2ccncc2OC[C@H]2CCCN2C(C)=O)[nH]c2c1C(=O)NCC2 [Compound 141b, 2-(3-[[(2R)-1-acetylpyrrolidin-2-yl]methoxy]pyridin-4-yl)-3-[(3-chloro-2-methoxyphenyl)amino]-1H,5H,6H,7H-pyrrolo[3,2-c]pyridin-4-one]	> 1000 nM	> 1000 nM	< 100 nM		
COc1c(F)cccc1Nc1c(-c2ccncc2OCn2nnc3ccccc32)[nH]c2c1C(=O)NCC2 [Compound 479, 2-[3-(1,2,3-benzotriazol-1-ylmethoxy)pyridin-4-yl]-3-[(3-fluoro-2-methoxyphenyl)amino]-1H,5H,6H,7H-pyrrolo[3,2-c]pyridin-4-one]	> 1000 nM	> 1000 nM	100 to 1000 nM		
COc1c(F)cccc1Nc1c(-c2ccncc2OCc2nccn2C)[nH]c2c1C(=O)NCC2 [Compound 482, 3-[(3-fluoro-2-methoxyphenyl)amino]-2-[3-[(1-methylimidazol-2-yl)methoxy]pyridin-4-yl]-1H,5H,6H,7H-pyrrolo[3,2-c]pyridin-4-one]	> 1000 nM	100 to 1000 nM	< 100 nM		
COc1c(F)cccc1Nc1c(-c2ccncc2OCC2CCc3ncnn32)[nH]c2c1C(=O)NCC2 (stereo not shown) [compound 133]	> 1000 nM	100 to 1000 nM	< 100 nM		
COc1c(Cl)cccc1Nc1c(-c2ccncc2OC[C@@H]2CCN2S(C)(=O)=O)[nH]c2c1C(=O)NCC2 [compound 192, 3-[(3-chloro-2-methoxyphenyl)amino]-2-(3-{[(2S)-1-methanesulfonylazetidin-2-yl]methoxy}pyridin-4-yl)-1H,5H,6H,7H-pyrrolo[3,2-c]pyridin-4-one]			< 100 nM		
COc1c(Cl)cccc1Nc1c(-c2ccncc2OC[C@@H]2CN(C(C)=O)CCO2)[nH]c2c1C(=O)NCC2 [compound 195, 2-(3-{[(2S)-4-acetylmorpholin-2-yl]methoxy}pyridin-4-yl)-3-[(3-chloro-2-methoxyphenyl)amino]-1H,5H,6H,7H-pyrrolo[3,2-c]pyridin-4-one]			< 100 nM		
C=CC(=O)N1CCC[C@H]1COc1cnccc1-c1[nH]c2c(c1Nc1cccc(F)c1OC)C(=O)NCC2 [compound 212, 3-[(3-fluoro-2-methoxyphenyl)amino]-2-(3-{[(2S)-1-(prop-2-enoyl)pyrrolidin-2-yl]methoxy}pyridine-4-yl)-1H,5H,6H,7H-pyrrolo[3,2-c]pyridin-4-one]			< 100 nM		
C=CC(=O)N1CCC[C@@]1(C)C#Cc1cnccc1-c1[nH]c2c(c1Nc1cccc(F)c1OC)C(=O)NCC2 [compound 246, 3-[(3-fluoro-2-methoxyphenyl)amino]-2-(3-{2-[(2S)-2-methyl-1-(prop-2-enoyl)pyrrolidin-2-yl]ethynyl}pyridin-4-yl)-1H,5H,6H,7H-pyrrolo[3,2-c]pyridin-4-one]			< 100 nM		
COc1c(F)cccc1Nc1c(-c2ccncc2C#CC(C)(C)NC(=O)/C=C/CN2CCN(C)CC2)[nH]c2c1C(=O)NCC2 [compound 464]	> 1000 nM	> 1000 nM		> 1000 nM	100 to 1000 nM
COc1c(F)cccc1Nc1c(-c2ccncc2C#CC(C)(C)NC(=O)C#CCN(C)C)[nH]c2c1C(=O)NCC2 [compound 465]	100 to 1000 nM	< 100 nM		< 100 nM	< 100 nM
COc1c(Cl)cccc1Nc1c(-c2ccncc2OCc2ccco2)[nH]c2c1C(=O)NCC2 [compound 471, 3-[(3-chloro-2-methoxyphenyl)amino]-2-[3-(furan-2-ylmethoxy)pyridin-4-yl]-1H,5H,6H,7H-pyrrolo[3,2-c]pyridin-4-one]			> 1000 nM		
COc1c(F)cccc1Nc1c(-c2ccncc2Oc2cnn(C)c2)[nH]c2c1C(=O)NCC2 [compound 484, 3-[(3-fluoro-2-methoxyphenyl)amino]-2-[3-[(1-methylpyrazol-4-yl)oxy]pyridin-4-yl]-1H,5H,6H,7H-pyrrolo[3,2-c]pyridin-4-one]			> 1000 nM		
COc1c(Cl)cccc1Nc1c(-c2ccncc2C#C[C@H]2COCCN2C)[nH]c2c1C(=O)NCC2 [compound 494, 3-[(3-chloro-2-methoxyphenyl)amino]-2-(3-[2-[(3S)-4-methylmorpholin-3-yl]ethynyl]pyridin-4-yl)-1H,5H,6H,7H-pyrrolo[3,2-c]pyridin-4-one]			< 100 nM		
C=CC(=O)N1CCOC[C@H]1C#Cc1cnccc1-c1[nH]c2c(c1Nc1cccc(Cl)c1OC)C(=O)NCC2 [compound 514, 3-[(3-chloro-2-methoxyphenyl)amino]-2-(3-{2-[(3R)-4-(prop-2-enoyl)morpholin-3-yl]ethynyl}pyridin-4-yl)-1H,5H,6H,7H-pyrrolo[3,2-c]pyridin-4-one]			< 100 nM		
C=CC(=O)N1CCOC[C@@H]1C#Cc1cnccc1-c1[nH]c2c(c1Nc1cccc(Cl)c1OC)C(=O)NCC2 [compound 515, 3-[(3-chloro-2-methoxyphenyl)amino]-2-(3-{2-[(3S)-4-(prop-2-enoyl)morpholin-3-yl]ethynyl}pyridine-4-yl)-1H,5H,6H,7H-pyrrolo[3,2-c]pyridin-4-one]			< 100 nM		
C=CC(=O)N1CCN(C)C[C@@H]1COc1cnccc1-c1[nH]c2c(c1Nc1cccc(Cl)c1OC)C(=O)NCC2 [compound 565]	> 1000 nM	100 to 1000 nM		100 to 1000 nM	100 to 1000 nM
C=CC(=O)N1CCN(C)C[C@@H]1COc1cnccc1-c1[nH]c2c(c1Nc1cccc(F)c1OC)C(=O)NCC2 [compound 566]	> 1000 nM	100 to 1000 nM		> 1000 nM	> 1000 nM
C=C(F)C(=O)N1CC[C@@H]1COc1cnccc1-c1[nH]c2c(c1Nc1cccc(F)c1C)C(=O)NCC2 [compound 567]	100 to 1000 nM	< 100 nM		100 to 1000 nM	< 100 nM
C=CC(=O)N1CCN(C)C[C@H]1COc1cnccc1-c1[nH]c2c(c1Nc1cccc(Cl)c1OC)C(=O)NCC2 [compound 568]	100 to 1000 nM	< 100 nM		< 100 nM	< 100 nM
C=CC(=O)N1CCN(C)C[C@H]1COc1cnccc1-c1[nH]c2c(c1Nc1cccc(F)c1OC)C(=O)NCC2 [compound 569]	100 to 1000 nM	< 100 nM		< 100 nM	< 100 nM
